# Data from patent US20230330060A1, “COMPOUNDS FOR TREATMENT OF HEART FAILURE” (Sulfateq B.V., priority 2020, published 2023).
# Assays:
# [1] = test system: doxorubicin-induced heart failure; test: Cardiac oxidative stress: lipid peroxidation (TBARS); type: in vivo, rat; details: doxorubicin rats; SUL-150 in prophylaxis or therapeutic regime
# Experimental: The SUL-150 solution was sprayed homogeneously over standard food pellets (1.25 kg). […] Food pellets were freshly prepared weekly. With the approximation of 200 mg·kg^−1 SUL-150 in the food pellets and a daily dietary intake of 25 gram for a 350 gram rat, daily dosing of SUL-150 approximates 5 mg·day^−1. Male outbred Wistar rats of 250-300 grams (10-12 weeks old) were kept on a 12 h light/dark cycle and received a standard diet with distilled water ad libitum. Thirty rats were administered with doxorubicin (2 mg·kg^−1) weekly via intraperitoneal injection for 9 consecutive weeks and were left either untreated (standard chow diet, 10 rats), or received a diet supplemented with SUL-150 as prophylaxis (prior to the 1st doxorubicin administration, 10 rats) or therapy (starting after the 6th doxorubicin administration, 10 rats). Sham control rats (8 rats) were administered with saline weekly via intraperitoneal injection for 9 consecutive weeks and received a standard diet. All rats were subjected to cardiac function assessment 12 weeks after the first doxorubicin administration. Cardiac tissue samples were homogenized in ddH2O using a TissueRuptor II (Qiagen, Hilden, Germany) followed by sonication at 20 kHz for 3×1 min (Sonopuls 2000, Bandelin, Berlin, Germany) and centrifugation at 14000 g to pellet insoluble proteins. […]
# [2] = test system: doxorubicin-induced heart failure; test: Cardiac function assessment by PV-loop analysis in rats with doxorubicin-induced heart failure; type: in vivo, rat; details: for ESP (End-systolic pressure): doxorubicin 2 mg/kg weekly i.p. x9, mean±S.D.; for ESP (End-systolic pressure) / Contractility efficiency / EDP (end-diastolic pressure) / EDV (end-diastolic volume) / ESV (end-systolic volume) / Ea (Arterial elastance) / Ees (ESPVR) end-systolic elastance / Emax (EDPVR) maximal elastance / PRSW (preload recruitable stroke work) / SV (stroke volume) / Tau (time constant of LV pressure decay) / dP/dTmax / dP/dTmin: 12 weeks; for Contractility efficiency / EDP (end-diastolic pressure) / EDV (end-diastolic volume) / ESV (end-systolic volume) / Ea (Arterial elastance) / Ees (ESPVR) end-systolic elastance / Emax (EDPVR) maximal elastance / PRSW (preload recruitable stroke work) / SV (stroke volume) / Tau (time constant of LV pressure decay) / dP/dTmax / dP/dTmin / Cardiac function (heart rate, ejection fraction, stroke work, cardiac output), FIG. 1: doxorubicin rats; for Contractility efficiency / EDP (end-diastolic pressure) / EDV (end-diastolic volume) / ESV (end-systolic volume) / Ea (Arterial elastance) / Ees (ESPVR) end-systolic elastance / Emax (EDPVR) maximal elastance / PRSW (preload recruitable stroke work) / SV (stroke volume) / Tau (time constant of LV pressure decay) / dP/dTmax / dP/dTmin: SUL-150 diet; for Cardiac function (heart rate, ejection fraction, stroke work, cardiac output), FIG. 1: p<0.05 vs doxorubicin group
# Experimental: The effectiveness of the compounds according to the invention for treatment or prophylaxis of HFrEF was tested in vivo in rats. Doxorubicin, an anthracycline antibiotic used in cancer chemotherapy, was employed to induce heart failure with reduced ejection fraction in preclinical rat models (Christiansen et al. (2006) Eur. J. Cardiothorac. Surg. 30:611-616; Ertunc et al. (2009) Pharmacology 84:240-248; Hayward et al. (2007) J. Am. Ass. Lab. Animal Sci. 46:20-32). […] The SUL-150 solution was sprayed homogeneously over standard food pellets (1.25 kg). […] Food pellets were freshly prepared weekly. With the approximation of 200 mg/kg SUL-150 in the food pellets and a daily dietary intake of 25 gram for a 350 gram rat, daily dosing of SUL-150 approximates 5 mg per day. Male outbred Wistar rats of 250-300 grams (10-12 weeks old) were kept on a 12h light/dark cycle and received a standard diet with distilled water ad libitum. Thirty rats were administered with doxorubicin (2 mg/kg) weekly via intraperitoneal injection for 9 consecutive weeks and were left either untreated (standard chow diet, 10 rats), or received a diet supplemented with SUL-150 as prophylaxis (prior to the 1st doxorubicin administration, 10 rats) or therapy (starting after the 6th doxorubicin administration, 10 rats). Sham control rats (8 rats) were administered with saline weekly via intraperitoneal injection for 9 consecutive weeks and received a standard diet. All rats were subjected to cardiac function assessment 12 weeks after the first doxorubicin administration. Cardiac function tests (PV-Loop assessment) were performed under anaesthesia (isoflurane in O2 (FiO2 100%)) followed by orotracheal intubation. The rats were placed in a mechanical rodent ventilator (Harvard Apparatus, Holliston, Massachusetts) with tidal volume of 10 mL/kg and 70 breaths per minute. A small window was opened below the sternum and with a small incision a 2F microtip pressure-conductance catheter (SPR-838; Millar Instruments, Houston, Tx) was inserted directly on the left ventricle (LV) through the apex. After stabilization, signals were recorded with a pressure-volume conductance System ([…]-Ultra, Millar Instruments, Houston, Tx) connected to a data acquisition system (PowerLab, AD Instruments, Colorado Springs, Co). […] Volume calibration was performed with fresh heparinized warm blood from each animal. Also, […] of 7.5% hypertonic saline was injected at the end of each experiment for the parallel conductance volume calibration. Data is analysed in GraphPad Prism 8.0 (GraphPad Software Inc, Ca). All results are expressed as mean±S.D. (standard deviation) or median and interquartile interval. The difference between groups was assessed by ANOVA followed by pairwise comparisons to the sham and vehicle treatment groups with p-values adjusted for multiple comparisons using FDR correction.
# [3] = therapeutic (after 6th doxorubicin)
structure (smiles),measurement,setting,value
"Cc1c(C)c2c(c(C)c1O)CC[C@](C)(C(=O)N1CCNCC1)O2 [SUL-150, (R)-(6-hydroxy-2,5,7,8-tetramethylchroman-2-yl)(piperazin-1-yl)methanone]","Cardiac lipid peroxidation products (TBARS), FIG. 5A",[1],mitigates cardiac lipid peroxidation
same,ESP (End-systolic pressure),"[2]; SUL-150 in diet (approx. 5 mg per day) as prophylaxis, prior to 1st doxorubicin",104.4 ± 12.3 mmHg
same,ESP (End-systolic pressure),"[2]; SUL-150 in diet (approx. 5 mg per day) as therapy, after 6th doxorubicin",114.3 ± 18.4 mmHg
same,Contractility efficiency,[2]; prophylaxis,53.0 ± 16.4 %
same,EDP (end-diastolic pressure),[2]; prophylaxis,8.1 ± 3.0 mmHg
same,EDV (end-diastolic volume),[2]; prophylaxis,325.0 ± 144^ μl
same,ESV (end-systolic volume),[2]; prophylaxis,175.3 ± 107^ μl
same,Ea (Arterial elastance),[2]; prophylaxis,0.7 ± 0.2 mmHg · μl−1
same,Ees (ESPVR) end-systolic elastance,[2]; prophylaxis,0.7 ± 0.6 mmHg · μl−1
same,Emax (EDPVR) maximal elastance,[2]; prophylaxis,0.04 ± 0.03 mmHg · μl−1
same,PRSW (preload recruitable stroke work),[2]; prophylaxis,9.9 ± 4.0 mmHg · ml−1
same,SV (stroke volume),[2]; prophylaxis,149.7 ± 55.† μl
same,Tau (time constant of LV pressure decay),[2]; prophylaxis,12.5 ± 3.1
same,dP/dTmax,[2]; prophylaxis,6144 ± 1782 mmHg · s−1
same,dP/dTmin,[2]; prophylaxis,−5006 ± 1140 mmHg · s−1
same,Contractility efficiency,[2]; [3],47.1 ± 18.1 %
same,EDP (end-diastolic pressure),[2]; [3],7.4 ± 3.7 mmHg
same,EDV (end-diastolic volume),[2]; [3],363.1 ± 115^ μl
same,ESV (end-systolic volume),[2]; [3],205.0 ± 96.4 µL
same,Ea (Arterial elastance),[2]; [3],0.7 ± 0.2 mmHg · μl−1
same,Ees (ESPVR) end-systolic elastance,[2]; [3],0.5 ± 0.4 mmHg · μl−1
same,Emax (EDPVR) maximal elastance,[2]; [3],0.03 ± 0.02 mmHg · μl−1
same,PRSW (preload recruitable stroke work),[2]; [3],11.0 ± 3.9 mmHg · ml−1
same,SV (stroke volume),[2]; [3],158.1 ± 55.† μl
same,Tau (time constant of LV pressure decay),[2]; [3],13.6 ± 5.2
same,dP/dTmax,[2]; [3],6487 ± 1665 mmHg · s−1
same,dP/dTmin,[2]; [3],−5092 ± 1447 mmHg · s−1
same,"Cardiac function (heart rate, ejection fraction, stroke work, cardiac output), FIG. 1",[2]; SUL-150 via food pellets after 6 cumulative doxorubicin administrations (therapeutic group),substantially improves the cardiac function
same,"Cardiac function (heart rate, ejection fraction, stroke work, cardiac output), FIG. 1",[2]; SUL-150 via food pellets prior to doxorubicin (prophylaxis group),substantially preserves cardiac function and largely maintains ejection fraction and cardiac output
